Source: article PMC7887755, “Structure–Activity Relationships of Pyrazolo[1,5-a]pyrimidin-7(4H)-ones as Antitubercular Agents” (ACS Infectious Diseases, 2021)
Values after ≈ are worked out from the molar mass of the structure shown. Values joined by “and” are separate entries in the source; they are usually repeats but may differ in a detail not shown here. Equal values may be shown once. Read-outs that look alike come from different tables or passages of the source.

Key:
Mtb H37Rv [1] = test: microbe, parasite or virus in culture; format: cell-based, Mycobacterium tuberculosis; settings: for MIC: Mycobacterium tuberculosis, H37RV
Mtb strain H37Rv = test: MIC against Mtb H37Rv under various media/carbon sources; format: cell-based; settings: Mycobacterium tuberculosis
[2] = tested on: cell wall responsive iniBAC promoter (piniB-LUX reporter strain); format: cell-based, Mycobacterium tuberculosis
[3] = tested on: DNA damage responsive recA and radA reporters; format: cell-based, Mycobacterium tuberculosis
iron uptake of Mtb H37Rv = test: 55Fe iron uptake by Mtb; format: cell-based, Mycobacterium tuberculosis; settings: 55Fe-labelled medium; 1 at 10 μM, DFO at 39 μM
Mtb H37Rv WT = test: microbe, parasite or virus in culture; format: cell-based; settings: Mycobacterium tuberculosis
[4] = Microsomal stability, mouse; format: in vitro ADME; settings: liver microsomes of female mouse, read-out: % Remaining after 2 h incubation Mouse
Description: (§1) % Remaining after 2 h incubation
(§2) Compound Chemical Structure
(§3) Table S1. Microsomal stability of some pyrazolo[1,5-a]pyrimidin-7(4H)-one derivatives
(§4) Microsomal stability was tested in microsomes from liver of female mouse (M9566 from Sigma-Aldrich)a or microsomes
(§5) from human liver (M0317 from Sigma-Aldrich)b.

[5] = Microsomal stability, human; format: in vitro ADME; settings: human liver microsomes, read-out: % Remaining after 2 h incubation Human
Description: as §1, §2, §3, §4, §5

in vitro = settings: human, 24 h
J774 cells = test: Murine macrophage cytotoxicity (luminescence-based); settings: Mus musculus; murine macrophage cell line J774, 24 h; read-out: IC50 against J774 cells
Mtb H37Rv [6] = test: MIC under iron-depleted (DFO) or iron-replete (FeCl3) conditions; format: cell-based, Mycobacterium tuberculosis
[7] = tested on: intramacrophage Mtb H37Rv; test: Ex vivo efficacy against intracellular Mtb in J774 macrophages; format: cell-based, Mycobacterium tuberculosis
[8] = pH 6, read-out: MIC nitrate/butyrate
[9] = Cytotoxicity (IC50) Galactose, HepG2 cells in DMEM/10% FBS with galactose
[10] = Cytotoxicity (IC50) Glucose, HepG2 cells in DMEM/10% FBS supplemented with glucose

Cc1nn2c(=O)cc(-c3ccccc3)[nH]c2c1-c1ccccc1 [Compound 1, 2-Methyl-3,5-diphenylpyrazolo[1,5-a]pyrimidin-7(4H)-one]
MIC (Mtb H37Rv [1]; read-out: MIC in 7H9 ADC): 12.5 µM (≈ 3.77 µg/mL)
MIC (Mtb H37Rv [1]; read-out: MIC in 7H9 GCas): 3.12 µM (≈ 0.94 µg/mL)
MIC (Mtb strain H37Rv; GAST/Fe, read-out: MIC GAST): 2.3 µM (≈ 0.693 µg/mL)
MIC (Mtb strain H37Rv; [8]): 12.5 µM (≈ 3.77 µg/mL)
MIC (Mtb strain H37Rv; read-out: MIC 7H9): 12.5 µM (≈ 3.77 µg/mL)
MIC (Mtb strain H37Rv; read-out: MIC Chol): 9.4 µM (≈ 2.83 µg/mL)
MIC (Mtb strain H37Rv; read-out: MIC GBSA/DBSA): 12.5 µM (≈ 3.77 µg/mL)
reporter gene assay cell wall [2]: no
reporter gene assay DNA damage [3]: no
effect on iron uptake (iron uptake of Mtb H37Rv): did not inhibit iron uptake
MIC (Mtb H37Rv WT): 1.2 µM (≈ 0.362 µg/mL)
remaining at 2 h [4]: 61%
remaining at 2 h [5]: 66%
IC50 (in vitro; [9]): > 100 µM
IC50 (in vitro; [10]): > 100 µM

Cc1nn2c(=O)cc(-c3ccc(Cl)c(Cl)c3)[nH]c2c1-c1ccc(F)cc1 [Compound P24, 5-(3,4-Dichlorophenyl)-3-(4-fluorophenyl)-2-methylpyrazolo[1,5-a]pyrimidin-7(4H)-one]
improvement in MIC compared to the initial hit 1 (Mtb H37Rv [1]): 8 fold
MIC (Mtb H37Rv [1]; read-out: MIC in 7H9 ADC): 2.34 µM (≈ 0.908 µg/mL)
MIC (Mtb H37Rv [1]; read-out: MIC in 7H9 GCas): 3.12 µM (≈ 1.21 µg/mL)
IC50 (J774 cells): 22.5 ± 2.1 µM
increase in potency under iron-depleted conditions (MIC ratio) (Mtb H37Rv [6]): ≤ 2 fold
MIC (Mtb H37Rv WT): 1.56 µM (≈ 0.606 µg/mL)
IC50 (in vitro; [9]): 38.7 µM
IC50 (in vitro; [10]): > 100 µM

Cc1nn2c(=O)cc(-c3ccc(F)c(F)c3)[nH]c2c1-c1ccccc1 [Compound P19, 5-(3,4-Difluorophenyl)-2-methyl-3-phenylpyrazolo[1,5-a]pyrimidin-7(4H)-one]
improvement in MIC compared to the initial hit 1 (Mtb H37Rv [1]): 5 fold
MIC (Mtb H37Rv [1]; read-out: MIC in 7H9 ADC): 2.73 µM (≈ 0.921 µg/mL)
MIC (Mtb H37Rv [1]; read-out: MIC in 7H9 GCas): 1.56 µM (≈ 0.526 µg/mL)
MIC (Mtb strain H37Rv; GAST/Fe, read-out: MIC GAST): 1.2 µM (≈ 0.405 µg/mL)
MIC (Mtb strain H37Rv; [8]): 1.56 µM (≈ 0.526 µg/mL)
MIC (Mtb strain H37Rv; read-out: MIC 7H9): 3.13 µM (≈ 1.06 µg/mL)
MIC (Mtb strain H37Rv; read-out: MIC Chol): 3.13 µM (≈ 1.06 µg/mL)
MIC (Mtb strain H37Rv; read-out: MIC GBSA/DBSA): 3.13 µM (≈ 1.06 µg/mL)
reporter gene assay cell wall [2]: no
reporter gene assay DNA damage [3]: no
IC50 (J774 cells): 29.6 ± 1.2 µM
reduction of bacterial burden [7]: ~0.5 logs
increase in potency under iron-depleted conditions (MIC ratio) (Mtb H37Rv [6]): ≤ 2 fold
MIC (Mtb H37Rv WT): 0.78 µM (≈ 0.263 µg/mL)
remaining at 2 h [4]: 66%
remaining at 2 h [5]: 77%
IC50 (in vitro; [9]): 58.9 µM
IC50 (in vitro; [10]): > 100 µM

CC(=O)N(O)CCCCCNC(=O)CCC(=O)N(O)CCCCCNC(=O)CCC(=O)N(O)CCCCCN [DFO, desferrioxamine, reference compound]
MIC (Mtb H37Rv [6]; Mycobacterium tuberculosis, H37RV, MIC of the iron-modulating additive itself): 250 µM
effect on iron uptake (iron uptake of Mtb H37Rv): completely inhibited uptake

Cc1nn2c(=O)cc(-c3ccc(F)c(F)c3)[nH]c2c1-c1ccc(Cl)cc1 [Compound P25, 3-(4-Chlorophenyl)-5-(3,4-difluorophenyl)-2-methylpyrazolo[1,5-a]pyrimidin-7(4H)-one]
improvement in MIC compared to the initial hit 1 (Mtb H37Rv [1]): 8 fold
MIC (Mtb H37Rv [1]; read-out: MIC in 7H9 ADC): 1.95 µM (≈ 0.725 µg/mL)
MIC (Mtb H37Rv [1]; read-out: MIC in 7H9 GCas): 3.12 µM (≈ 1.16 µg/mL)
IC50 (J774 cells): 20.2 ± 0.8 µM
reduction of bacterial counts [7]: 1.5 orders of magnitude and 2 orders of magnitude
IC50 (in vitro; [9]): 52.6 µM
IC50 (in vitro; [10]): 94.3 µM
